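Interpolation was linear, between the two tested concentrations surrounding the appropriate level; five concentrations were tested over 48 hours in 96-well plates. The concentration for 50% growth inhibition is given as GI50. Definition used: TGI = concentration required for complete inhibition of growth.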
Assays:
Assay in all cases: NCI-60 cell line screen, 48 h
786-0 renal = tested on: 786-0 renal
A498 renal = tested on: A498 renal
A549 NSCLC = tested on: A549 NSCLC
ACHN renal = tested on: ACHN renal
BT-549 breast = tested on: BT-549 breast
CAKI-1 renal = tested on: CAKI-1 renal
CCRF-CEM leukemia = tested on: CCRF-CEM leukemia
COLO 205 colon = tested on: COLO 205 colon
DU-145 prostate = tested on: DU-145 prostate
EKVX NSCLC = tested on: EKVX NSCLC
HCC-2998 colon = tested on: HCC-2998 colon
HCT-116 colon = tested on: HCT-116 colon
HCT-15 colon = tested on: HCT-15 colon
HL-60(TB) leukemia = tested on: HL-60(TB) leukemia
HOP-62 NSCLC = tested on: HOP-62 NSCLC
HOP-92 NSCLC = tested on: HOP-92 NSCLC
HS 578T breast = tested on: HS 578T breast
HT29 colon = tested on: HT29 colon
IGROV1 ovarian = tested on: IGROV1 ovarian
K-562 leukemia = tested on: K-562 leukemia
KM12 colon = tested on: KM12 colon
LOX IMVI melanoma = tested on: LOX IMVI melanoma
M14 melanoma = tested on: M14 melanoma
MALME-3M melanoma = tested on: MALME-3M melanoma
MCF7 breast = tested on: MCF7 breast
MDA-MB-231 breast = tested on: MDA-MB-231 breast
MDA-MB-435 = tested on: MDA-MB-435
MDA-MB-468 breast = tested on: MDA-MB-468 breast
MOLT-4 leukemia = tested on: MOLT-4 leukemia
NCI-H226 lung = tested on: NCI-H226 lung
NCI-H23 lung = tested on: NCI-H23 lung
NCI-H460 lung = tested on: NCI-H460 lung
NCI-H522 lung = tested on: NCI-H522 lung
NCI/ADR-RES ovarian = tested on: NCI/ADR-RES ovarian
OVCAR-3 ovarian = tested on: OVCAR-3 ovarian
OVCAR-4 ovarian = tested on: OVCAR-4 ovarian
OVCAR-5 ovarian = tested on: OVCAR-5 ovarian
OVCAR-8 ovarian = tested on: OVCAR-8 ovarian
PC-3 prostate = tested on: PC-3 prostate
RPMI-8226 leukemia = tested on: RPMI-8226 leukemia
RXF 393 renal = tested on: RXF 393 renal
SF-268 CNS = tested on: SF-268 CNS
SF-295 CNS = tested on: SF-295 CNS
SF-539 CNS = tested on: SF-539 CNS
SK-MEL-2 melanoma = tested on: SK-MEL-2 melanoma
SK-MEL-28 melanoma = tested on: SK-MEL-28 melanoma
SK-MEL-5 melanoma = tested on: SK-MEL-5 melanoma
SK-OV-3 ovarian = tested on: SK-OV-3 ovarian
SN12C renal = tested on: SN12C renal
SNB-19 CNS = tested on: SNB-19 CNS
SNB-75 CNS = tested on: SNB-75 CNS
SR leukemia = tested on: SR leukemia
SW-620 colon = tested on: SW-620 colon
T-47D breast = tested on: T-47D breast
TK-10 renal = tested on: TK-10 renal
U251 CNS = tested on: U251 CNS
UACC-257 melanoma = tested on: UACC-257 melanoma
UACC-62 melanoma = tested on: UACC-62 melanoma
UO-31 renal = tested on: UO-31 renal

## NS(=O)(=O)c1ccc(N2N=C(c3ccc(NC(=O)Nc4ccccc4)cc3)CC2c2ccc(Br)cc2)cc1 (configuration not stated)
786-0 renal
  GI50: 2950 nM
  TGI: 10.1 µM
A498 renal
  GI50: 1980 nM
  TGI: 4.99 µM
A549 NSCLC
  GI50: 3.08 µM
  TGI: 11.3 µM
ACHN renal
  GI50: 2880 nM
  TGI: 8.93 µM
BT-549 breast
  GI50: 2030 nM
  TGI: 4.22 µM
CAKI-1 renal
  GI50: 2640 nM
  TGI: 8.44 µM
CCRF-CEM leukemia
  GI50: 2340 nM
  TGI: 5.95 µM
COLO 205 colon
  GI50: 1790 nM
  TGI: 3.39 µM
DU-145 prostate
  GI50: 2870 nM
  TGI: 8.67 µM
EKVX NSCLC
  GI50: 3.19 µM
  TGI: 13.6 µM
HCC-2998 colon
  GI50: 1600 nM
  TGI: 3.06 µM
HCT-116 colon
  GI50: 1750 nM
  TGI: 3.56 µM
HCT-15 colon
  GI50: 2580 nM
  TGI: 10.1 µM
HL-60(TB) leukemia
  GI50: 2120 nM
  TGI: 5.59 µM
HOP-62 NSCLC
  GI50: 2010 nM
  TGI: 4.78 µM
HOP-92 NSCLC
  GI50: 1980 nM
  TGI: 5.24 µM
HS 578T breast
  GI50: 2520 nM
  TGI: 7.86 µM
HT29 colon
  GI50: 1920 nM
  TGI: 4.53 µM
IGROV1 ovarian
  GI50: 2860 nM
  TGI: 10.6 µM
K-562 leukemia
  GI50: 3.16 µM
  TGI: > 100 µM
KM12 colon
  GI50: 2620 nM
  TGI: 6.92 µM
LOX IMVI melanoma
  GI50: 1730 nM
  TGI: 3.12 µM
M14 melanoma
  GI50: 2110 nM
  TGI: 4.5 µM
MALME-3M melanoma
  GI50: 2150 nM
  TGI: 5.76 µM
MCF7 breast
  GI50: 2600 nM
  TGI: 10.2 µM
MDA-MB-231 breast
  GI50: 1930 nM
  TGI: 4.03 µM
MDA-MB-435
  GI50: 2020 nM
  TGI: 7.47 µM
MDA-MB-468 breast
  GI50: 2010 nM
  TGI: 5.38 µM
MOLT-4 leukemia
  GI50: 2660 nM
  TGI: 11.4 µM
NCI-H226 lung
  GI50: 2340 nM
  TGI: 6.76 µM
NCI-H23 lung
  GI50: 1850 nM
  TGI: 3.73 µM
NCI-H460 lung
  GI50: 1920 nM
  TGI: 4.25 µM
NCI-H522 lung
  GI50: 2670 nM
  TGI: 8.23 µM
NCI/ADR-RES ovarian
  GI50: 1910 nM
  TGI: 4 µM
OVCAR-3 ovarian
  GI50: 1860 nM
  TGI: 4.34 µM
OVCAR-4 ovarian
  GI50: 2550 nM
  TGI: 10.5 µM
OVCAR-5 ovarian
  GI50: 2140 nM
  TGI: 5.4 µM
OVCAR-8 ovarian
  GI50: 3.55 µM
  TGI: 16.1 µM
PC-3 prostate
  GI50: 2730 nM
  TGI: 9.76 µM
RPMI-8226 leukemia
  GI50: 2110 nM
  TGI: 5.26 µM
RXF 393 renal
  GI50: 1820 nM
  TGI: 4.96 µM
SF-268 CNS
  GI50: 2630 nM
  TGI: 11.2 µM
SF-295 CNS
  GI50: 3.18 µM
  TGI: 12.7 µM
SF-539 CNS
  GI50: 2060 nM
  TGI: 4.63 µM
SK-MEL-2 melanoma
  GI50: 5.38 µM
  TGI: 19.9 µM
SK-MEL-28 melanoma
  GI50: 2660 nM
  TGI: 7.26 µM
SK-MEL-5 melanoma
  GI50: 1770 nM
  TGI: 3.39 µM
SK-OV-3 ovarian
  GI50: 3.48 µM
  TGI: 14.2 µM
SN12C renal
  GI50: 1680 nM
  TGI: 3.15 µM
SNB-19 CNS
  GI50: 4.11 µM
  TGI: 15.7 µM
SNB-75 CNS
  GI50: 1760 nM
  TGI: 11.7 µM
SR leukemia
  GI50: 2710 nM
  TGI: 9.08 µM
SW-620 colon
  GI50: 2500 nM
T-47D breast
  GI50: 2870 nM
  TGI: 11.6 µM
TK-10 renal
  GI50: 3.13 µM
  TGI: 12.4 µM
U251 CNS
  GI50: 2720 nM
  TGI: 8.65 µM
UACC-257 melanoma
  GI50: 5.32 µM
  TGI: 20.4 µM
UACC-62 melanoma
  GI50: 1640 nM
  TGI: 3.23 µM
UO-31 renal
  GI50: 2570 nM
  TGI: 10.7 µM
